Literature values, collected in US10029019B1, “Method for mitigating osteoporosis using metallic gold cluster molecules” (priority 2017, dated 2018).

Key:
[1] = tested on: RANKL-induced NF-κβ activation; details: RAW 264.7 monocytes during osteoclast differentiation
BMMs = details: up to 200 μM in BMMs in vitro

SMILES | formation of RAW264.7 precursor cells into osteoclasts (RAW264.7 cells) | other results
O=C1c2c(O)cccc2C([C@@H]2O[C@H](CO)[C@@H](O)[C@H](O)[C@H]2O)c2cc(CO)cc(O)c21 (stereo partly shown) [Aloin] | prevent osteoclast differentiation | –
O=C(/C=C/c1ccc(O)c(O)c1)OCCc1ccccc1 [Caffeic Acid Phenethyl Ester (CAPE), Caffeic Acid Phenethyl Ester] | – | RANKL-induced NF-κβ activation [1]: inhibit
[HH] [Hydrogen molecules] | inhibit | –
[Cl][La]([Cl])[Cl] [Lanthianum Chloride] | – | reduction of gene expression that leads towards osteoclastic differentiation (BMMs): 50%
